Measured values reported in PubChem BioAssay AID248 (DTP/NCI, 2004).
Inconclusive results and toxic doses are left out. Rule as the data show it: active = T/C of 150% or more; inactive = T/C below 125%.

System: L1210 leukemia ip in BDF1 mice, survival T/C
Assay: NCI In Vivo Anticancer Drug Screen. Data for tumor model L1210 Leukemia (intraperitoneal) in B6D2F1 (BDF1) mice
Conditions: endpoint: mean survival time, higher = longer survival
Outline: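 Ratio derived from survival: compound-dosed mice over vehicle-dosed mice, all bearing a transplantable tumor.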

[1] = dose: 50.0 mg/kg/injection, schedule: Q01DX009 (ip), vehicle: Klucel (hydroxypropylcellulose) (HPC)
[2] = dose: 100.0 mg/kg/injection, schedule: Q01DX009 (ip), vehicle: Klucel (hydroxypropylcellulose) (HPC)
[3] = dose: 200.0 mg/kg/injection, schedule: Q01DX009 (ip), vehicle: Klucel (hydroxypropylcellulose) (HPC)
[4] = dose: 100.0 mg/kg/injection, schedule: Q01DX009 (ip), vehicle: saline with Tween-80
[5] = dose: 200.0 mg/kg/injection, schedule: Q01DX009 (ip), vehicle: saline with Tween-80
[6] = dose: 400.0 mg/kg/injection, schedule: Q01DX009 (ip), vehicle: saline with Tween-80
[7] = dose: 100.0 mg/kg/injection, schedule: Q04DX003 (ip), vehicle: saline with Tween-80
[8] = dose: 200.0 mg/kg/injection, schedule: Q04DX003 (ip), vehicle: saline with Tween-80
[9] = dose: 400.0 mg/kg/injection, schedule: Q04DX003 (ip), vehicle: saline with Tween-80
[10] = dose: 50.0 mg/kg/injection, schedule: Q01DX009 (ip), vehicle: saline with Tween-80
[11] = dose: 100.0 mg/kg/injection, schedule: Q01DX001 (ip), vehicle: saline
[12] = dose: 100.0 mg/kg/injection, schedule: Q04DX003 (ip), vehicle: saline
[13] = dose: 200.0 mg/kg/injection, schedule: Q01DX001 (ip), vehicle: saline
[14] = dose: 200.0 mg/kg/injection, schedule: Q04DX003 (ip), vehicle: saline
[15] = dose: 400.0 mg/kg/injection, schedule: Q01DX001 (ip), vehicle: saline
[16] = dose: 400.0 mg/kg/injection, schedule: Q04DX003 (ip), vehicle: saline
[17] = dose: 100.0 mg/kg/injection, schedule: Q04DX003 (ip), vehicle: carboxymethylcellulose (CMC)
[18] = dose: 200.0 mg/kg/injection, schedule: Q04DX003 (ip), vehicle: carboxymethylcellulose (CMC)
[19] = dose: 100.0 mg/kg/injection, schedule: Q04DX003 (ip), vehicle: Klucel (hydroxypropylcellulose) (HPC)
[20] = dose: 200.0 mg/kg/injection, schedule: Q04DX003 (ip), vehicle: Klucel (hydroxypropylcellulose) (HPC)
[21] = dose: 400.0 mg/kg/injection, schedule: Q04DX003 (ip), vehicle: Klucel (hydroxypropylcellulose) (HPC)

Measured: T/C

CC[N+]12CC=C(CO)C1C(O)CC2 (stereo not drawn)
inactive: [1] 100 % of control | [2] 95 % of control | [3] 95 % of control

Cc1c(C)c(C(=O)O)c(C)c(C)c1C(=O)O
inactive: [4] 96 % of control | [5] 97 % of control | [6] 102 % of control

c1ccc(CC2SCCCS2)cc1
inactive: [4] 103 % of control | [7] 108 % of control | [5] 88 % of control | [8] 95 % of control | [6] 99 % of control | [9] 95 % of control

COC(=O)C1Cc2ccccc2/C1=N\O (stereo not drawn)
inactive: [10] 94 % of control | [4] 94 % of control | [5] 94 % of control

O=C(CNC(=O)Nc1cccc(Cl)c1)N/N=C/c1cccc([N+](=O)[O-])c1
inactive: [10] 98 % of control | [4] 95 % of control | [5] 98 % of control

CCCCCCCNN=C(N)N
inactive: [11] 98 % of control | [12] 111 % of control | [13] 98 % of control | [14] 95 % of control | [15] 97 % of control | [16] 117 % of control

Clc1nc(Cl)nc(-c2cccn2-c2ccccc2)n1
inactive: dose: 6.25 mg/kg/injection, schedule: Q01DX009 (ip), vehicle: saline with Tween-80 92 % of control | dose: 100.0 mg/kg/injection, schedule: Q04DX003 (ip), vehicle: acetone 101 % of control | [12] 101 % of control | dose: 200.0 mg/kg/injection, schedule: Q04DX003 (ip), vehicle: acetone 86 % of control | [16] 93 % of control

CC[Si](C)(C)N1CC1
inactive: dose: 12.5 mg/kg/injection, schedule: Q01DX001 (ip), vehicle: carboxymethylcellulose (CMC) 106 % of control | dose: 25.0 mg/kg/injection, schedule: Q01DX001 (ip), vehicle: carboxymethylcellulose (CMC) 101 % of control | dose: 50.0 mg/kg/injection, schedule: Q04DX003 (ip), vehicle: carboxymethylcellulose (CMC) 94 % of control | [17] 101 % of control | [18] 101 % of control

C(/C=C/c1ccccc1)=Nc1ccc2c(c1)Cc1ccccc1-2
inactive: [19] 94 % of control | [20] 89 % of control | [21] 89 % of control

CC(=O)[O][Hg][CH2]C1(C)COC(C)([CH2][Hg][O]C(C)=O)CO1 (stereo not drawn)
inactive: dose: 10.0 mg/kg/injection, schedule: Q01DX001 (ip), vehicle: carboxymethylcellulose (CMC) 108 % of control | dose: 20.0 mg/kg/injection, schedule: Q01DX001 (ip), vehicle: carboxymethylcellulose (CMC) 97 % of control | dose: 80.0 mg/kg/injection, schedule: Q01DX001 (ip), vehicle: carboxymethylcellulose (CMC) 97 % of control

CC1(C)C2CCC1(C)C(Oc1ccccc1)C2 (stereo not drawn)
inactive: [4] 100 % of control | [5] 98 % of control

COc1nc(N)nc2c1ncn2C1OC(CO)C(O)C1O (stereo not drawn)
inactive: dose: 75.0 mg/kg/injection, schedule: Q01DX001 (ip), vehicle: saline 102 % of control | dose: 150.0 mg/kg/injection, schedule: Q01DX001 (ip), vehicle: saline 93 % of control

Cc1ccc(C(=O)NC(N)=O)cc1
inactive: [2] 101 % of control | [3] 95 % of control

O=[N+]([O-])c1ccc(CC2=NCCc3cc4c(cc32)OCO4)cc1
inactive: [11] 98 % of control | [13] 96 % of control | [15] 105 % of control

COC(=O)C1(C(=O)OC)CC1CCl (stereo not drawn)
inactive: [4] 96 % of control | [7] 101 % of control | [5] 105 % of control | [8] 101 % of control | [6] 93 % of control | [9] 95 % of control

O=C(NCc1ccccc1)Nc1ccccc1
inactive: [19] 96 % of control | [20] 100 % of control | [21] 96 % of control

COc1ccc(C2c3cc(OC)c(OC)cc3CC3C(=O)OCC32)cc1OC (stereo not drawn)
inactive: [19] 98 % of control | [20] 93 % of control | [21] 93 % of control

O=C(Nc1ccc(CN2CCOCC2)cc1)c1ccc(C(=O)Nc2ccc(CN3CCOCC3)cc2)cc1
inactive: dose: 37.5 mg/kg/injection, schedule: Q01DX Z (ip), vehicle: water 86 % of control | dose: 75.0 mg/kg/injection, schedule: Q01DX Z (ip), vehicle: water 91 % of control

O=C1C2=C(NC1(c1ccccc1)c1ccccc1)c1ccccc1C2
inactive: [1] 101 % of control | [2] 105 % of control | [3] 97 % of control

CCCCN(CCCC)CP(=S)(CN(CCCC)CCCC)CN(CCCC)CCCC
inactive: [19] 104 % of control | [20] 104 % of control | [21] 107 % of control

CC(NC(=O)CCN)C(=O)O (stereo not drawn)
inactive: dose: 25.0 mg/kg/injection, schedule: Q04DX002 (ip), vehicle: saline 96 % of control | dose: 50.0 mg/kg/injection, schedule: Q04DX002 (ip), vehicle: saline 89 % of control | dose: 100.0 mg/kg/injection, schedule: Q04DX002 (ip), vehicle: saline 102 % of control

O=C1c2cccc3cc([N+](=O)[O-])cc(c23)C(=O)N1CCc1ccccn1
inactive: dose: 100.0 mg/kg/injection, schedule: Q04DX002 (ip), vehicle: Klucel (hydroxypropylcellulose) (HPC) 94 % of control | dose: 200.0 mg/kg/injection, schedule: Q04DX002 (ip), vehicle: Klucel (hydroxypropylcellulose) (HPC) 102 % of control | dose: 400.0 mg/kg/injection, schedule: Q04DX002 (ip), vehicle: Klucel (hydroxypropylcellulose) (HPC) 108 % of control

C(=N\OCCc1ccccc1)/c1cccnc1
inactive: dose: 100.0 mg/kg/injection, schedule: Q01DX009 (ip), vehicle: saline sonified 98 % of control | dose: 200.0 mg/kg/injection, schedule: Q01DX009 (ip), vehicle: saline sonified 100 % of control | dose: 400.0 mg/kg/injection, schedule: Q01DX009 (ip), vehicle: saline sonified 102 % of control

CCOC(=O)CC(NC(=O)N(CCCl)CCCl)C(=O)OCC (stereo not drawn)
inactive: dose: 62.5 mg/kg/injection, schedule: Q01DX Z (ip), vehicle: water 101 % of control | dose: 125.0 mg/kg/injection, schedule: Q01DX Z (ip), vehicle: water 108 % of control | dose: 250.0 mg/kg/injection, schedule: Q01DX Z (ip), vehicle: water 111 % of control

CCC1(C(C)=O)CN2CCc3cc(OC)c(OC)cc3C2N2CCc3ccc(OC)c(OC)c3C21 (stereo not drawn)
inactive: [17] 95 % of control | [18] 98 % of control | dose: 400.0 mg/kg/injection, schedule: Q04DX003 (ip), vehicle: carboxymethylcellulose (CMC) 95 % of control

C=C(C)C1CCC(C)CC1O (stereo not drawn)
inactive: [10] 111 % of control | [4] 97 % of control | [5] 108 % of control

CC1(C)SC(C)(C)C1=O
inactive: dose: 50.0 mg/kg/injection, schedule: Q04DX002 (ip), vehicle: gum acacia 100 % of control | dose: 100.0 mg/kg/injection, schedule: Q04DX002 (ip), vehicle: gum acacia 96 % of control | dose: 200.0 mg/kg/injection, schedule: Q04DX002 (ip), vehicle: gum acacia 107 % of control

CCCCNCC#N
inactive: dose: 50.0 mg/kg/injection, schedule: Q01DX001 (ip), vehicle: saline 110 % of control

OC[P+](c1ccccc1)(c1ccccc1)c1ccccc1
inactive: [12] 98 % of control | [14] 98 % of control
